Assay results: the CheMixHub ionic liquid set
± gives the uncertainty stated by the source.

Experiment: xn = mol fraction of the nth substance listed

CCCCCCCCn1cc[n+](C)c1.[Cl-] + CO
101 kPa
Settings	viscosity [mPa·s]
298.15 K, x1 = 0.0197	0.729 ± 0.025
298.15 K, x2 = 0.3525	530 ± 110
298.15 K, x2 = 0.4395	237 ± 33
298.15 K, x2 = 0.5589	64.1 ± 2.1
298.15 K, x2 = 0.8713	2.39 ± 0.073
298.15 K, x2 = 0.8813	2.205 ± 0.067
313.15 K, x2 = 0.5589	34.97 ± 0.94
313.15 K, x2 = 0.8231	3.58 ± 0.11
328.15 K, x2 = 0.4395	55.2 ± 1.2
328.15 K, x2 = 0.8231	2.496 ± 0.077

CCCC(=O)[O-].OCC[NH2+]c1ccccc1 + O
303.15 K, 100 kPa
Settings	electrical conductivity [S/m]
x2 = 0.0163	0.000469 ± 1.9e-05
x2 = 0.03811	0.00047 ± 1.9e-05
x2 = 0.05476	0.000471 ± 1.9e-05
x2 = 0.07271	0.000472 ± 1.9e-05

CC[NH3+].O=[N+]([O-])[O-] + CC[NH+](CC)CC.O=[N+]([O-])[O-]
101 kPa, frequency 0.00293 MHz, x2 = 0
Settings	electrical conductivity [S/m]
293.15 K	1.93
298.15 K	2.25
313.15 K	3.37
323.15 K	4.22

101 kPa, x2 = 0
Settings	viscosity [mPa·s]
293.15 K	43.5
298.15 K	36.5
313.15 K	22.8
323.15 K	17.6

CCCCCC[n+]1ccn(C)c1.N#C[S-] + [Br-].[Li+] + CN1CCCC1=O
298.15 K, 101 kPa
Settings	viscosity [mPa·s]
x1 = 0.001485, x2 = 0.05195	3.247 ± 0.038
x1 = 0.00149, x2 = 0.02731	2.398 ± 0.029
x1 = 0.001549, x2 = 0.07614	4.405 ± 0.051
x1 = 0.003034, x2 = 0.02727	2.411 ± 0.029
x1 = 0.003327, x2 = 0.07601	4.433 ± 0.051
x1 = 0.003386, x2 = 0.05185	3.276 ± 0.039
x1 = 0.004842, x2 = 0.05177	3.304 ± 0.039
x1 = 0.004935, x2 = 0.02722	2.44 ± 0.03
x1 = 0.004954, x2 = 0.07588	4.462 ± 0.052
x1 = 0.005883, x2 = 0.02719	2.46 ± 0.03
x1 = 0.006254, x2 = 0.0517	3.332 ± 0.039
x1 = 0.006429, x2 = 0.07577	4.49 ± 0.052
x1 = 0.007608, x2 = 0.02715	2.485 ± 0.03
x1 = 0.007678, x2 = 0.07567	4.518 ± 0.052
x1 = 0.007769, x2 = 0.05162	3.36 ± 0.04
x1 = 0.009204, x2 = 0.07556	4.575 ± 0.053
x1 = 0.009231, x2 = 0.05154	3.388 ± 0.04
x1 = 0.009463, x2 = 0.0271	2.489 ± 0.03
x1 = 0.009859, x2 = 0.05151	3.416 ± 0.04
x1 = 0.01038, x2 = 0.02707	2.534 ± 0.031
x1 = 0.01063, x2 = 0.07545	4.603 ± 0.053
x1 = 0.01211, x2 = 0.02702	2.541 ± 0.031
x1 = 0.01221, x2 = 0.07533	4.631 ± 0.053
x1 = 0.01242, x2 = 0.05138	3.444 ± 0.04

CC[n+]1ccn(C)c1.N#C[S-] + CCCO
viscosity [mPa·s], 101 kPa
Settings	283.15 K	293.15 K	303.15 K	313.15 K	323.15 K
x1 = 0.0494	3.32 ± 0.07	2.6 ± 0.07	2.07 ± 0.07	1.68 ± 0.07	1.38 ± 0.07
x1 = 0.0994	4.04 ± 0.08	3.12 ± 0.07	2.47 ± 0.07	1.99 ± 0.07	1.63 ± 0.07
x1 = 0.1997	5.49 ± 0.08	4.24 ± 0.08	3.4 ± 0.07	2.63 ± 0.07	2.17 ± 0.07
x1 = 0.3015	7.06 ± 0.09	5.36 ± 0.08	4.21 ± 0.08	3.42 ± 0.07	2.87 ± 0.07
x1 = 0.3996	9.09 ± 0.11	6.89 ± 0.09	5.39 ± 0.08	4.34 ± 0.08	3.58 ± 0.08
x1 = 0.4986	12.1 ± 0.44	9.09 ± 0.11	7.06 ± 0.1	5.65 ± 0.09	4.64 ± 0.08
x1 = 0.5998	15.89 ± 0.46	11.72 ± 0.44	8.97 ± 0.11	7.08 ± 0.1	5.66 ± 0.09
x1 = 0.7008	20.24 ± 0.48	14.76 ± 0.46	10.88 ± 0.13	8.47 ± 0.11	6.81 ± 0.1
x1 = 0.8005	25.11 ± 0.51	17.87 ± 0.47	13.31 ± 0.45	10.27 ± 0.13	8.17 ± 0.11
x1 = 0.9002	30.71 ± 0.56	21.99 ± 0.5	16.11 ± 0.47	12.25 ± 0.45	9.62 ± 0.13
x1 = 0.946	34.98 ± 0.6	24.14 ± 0.52	17.68 ± 0.48	13.52 ± 0.46	10.63 ± 0.14
x1 = 1	38.41 ± 0.64	26.31 ± 0.54	19.03 ± 0.49	14.3 ± 0.46	11.1 ± 0.45

CCCC[P+](CCCC)(CCCC)CCCC.F[B-](F)(F)F + C1CCOC1 + C1COCO1
298.15 K, 100 kPa
Settings	viscosity [mPa·s]
x1 = 0.0007279, x2 = 0.2549	0.563 ± 0.008
x1 = 0.0007522, x2 = 0.5064	0.531 ± 0.008
x1 = 0.0007834, x2 = 0.7544	0.499 ± 0.008
x1 = 0.001095, x2 = 0.2548	0.569 ± 0.008
x1 = 0.001131, x2 = 0.5062	0.537 ± 0.008
x1 = 0.001182, x2 = 0.7541	0.505 ± 0.008
x1 = 0.001455, x2 = 0.2547	0.575 ± 0.008
x1 = 0.001511, x2 = 0.506	0.542 ± 0.008
x1 = 0.001573, x2 = 0.7538	0.51 ± 0.008
x1 = 0.001821, x2 = 0.2546	0.581 ± 0.009
x1 = 0.001889, x2 = 0.5058	0.548 ± 0.008
x1 = 0.001971, x2 = 0.7535	0.516 ± 0.008
x1 = 0.00218, x2 = 0.2545	0.588 ± 0.009
x1 = 0.002268, x2 = 0.5056	0.554 ± 0.008
x1 = 0.002368, x2 = 0.7532	0.522 ± 0.008
x1 = 0.002547, x2 = 0.2544	0.595 ± 0.009
x1 = 0.002646, x2 = 0.5054	0.561 ± 0.008
x1 = 0.002758, x2 = 0.7529	0.528 ± 0.008

CCCCCCCCn1cc[n+](C)c1.[Cl-] + CCCCCCCCn1cc[n+](C)c1.F[B-](F)(F)F
101 kPa, x1 = 1
Settings	electrical conductivity [S/m]	viscosity [mPa·s]
303 K	0.00213 ± 0.00018	–
308 K	0.00353 ± 0.00029	–
313 K	0.00562 ± 0.00046	–
318 K	0.00861 ± 0.0007	–
328.15 K	–	1367 ± 430
